In patent publication US5670506A, “Halogen, isothiocyanate or azide substituted xanthines” (Cell Therapeutics, Inc., priority 1993, dated 1997):

Legend:
[1] = test system: mixed lymphocyte assay culture (PBMC); test: percent viable cells in mixed lymphocyte assay culture after six days; type: cell-based, human; conditions: 100 μM
Protocol: Control cells that have not been exposed to a drug are generally 78 to 85% viable under such culture conditions. For this graph, all of the compounds were present at 100 μM, which is usually well above their IC50 concentration in this assay (see FIG. 1).

murine thymocytes = test: inhibition of murine thymocyte proliferation stimulated by ConA and IL-1α; type: cell-based, murine (Balb/C mice); conditions: FIG. 4, 4 days
Protocol: The drugs (inventive compounds) were added to the cells at the doses indicated two hours prior to activation with ConA and IL-1α. […] Background counts were less than 200 cpm. This in vitro assay is a model for immune suppression and treatment or prevention of autoimmune diseases.
A third assay measures an ability of an inventive compound to inhibit IL-2-induced proliferation of murine thymocytes. Thymus glands are obtained from 4-6 week old mice and plated as a single cell suspension into flat bottomed wells in RPMI 1640 medium supplemented with 10% fetal calf serum. The inventive compounds are added to appropriate wells and the cells are incubated for 1-2 hrs. Concanavilin A (ConA, 0.25 μg/ml) and IL-1 (20 ng/ml) are added and the plates are incubated for 4 days. Cell proliferation is determined as above. There are also variations for this assay that follow the same basic stimulation and measure inhibition of proliferation format. […]
This example illustrates the effect of CT1514, CT1525, CT1527, CT1529, CT1577, CT1583, CT1589, CT1595, CT2519, CT1205, CT1801 and CT1908 on inhibition of murine thymocyte proliferation stimulated by Concanavalin A (ConA) and interleukin-2 (IL-2) (FIG. 4). […] The cells were harvested and incorporated tritiated thymidine was determined in a liquid scintillation counter. […]

murine splenocytes = test: inhibition of murine splenocyte proliferation stimulated by anti-mu and IL-4; type: cell-based; conditions: FIG. 5; anti-mu (10 μg/ml) and IL-4 (12.5 ng/ml)
Protocol: Drug was added to the cells at the doses indicated two hours prior to activation with anti-mu and IL-4. This in vitro assay is a model for immune suppression and treatment or prevention of autoimmune diseases. […] Background counts were less than 200 cpm.
There are a series of in vitro assays that can be used to measure immunosuppressive activity of a particular compound. These assays are a predictive model for treatment or prevention of autoimmune diseases, such as diabetes, lupus, arthritis, and the like. A first assay measures immunosuppressive activity of a drug at the B cell level. Spleens from adult mice contain immature B cells that express surface IgM. Cross-linking the surface IgM with an anti-mu antibody results in B cell proliferation. Additionally, this activation results in an increased expression of interleukin-4 receptors(IL-4R) on the surface of such cells. IL-4 acts as a growth factor for B cells and will increase the amount of proliferation induced by anti-mu. In the first assay, a mixture of anti-mu and murine IL-4 is added to murine splenocytes to cause their proliferation. Mice spleens are obtained from adult mice and a single cell suspension is prepared in RPMI 1640 medium supplemented with 10% FCS. […] Proliferation is determined on the third day with a pulse of tritiated thymidine. […]

human stromal cells = test: inhibition of proliferation of human stromal cells stimulated with PDGF; type: cell-based
Protocol: (§1) This assay is a model for restenosis and treatment of atherosclerosis and coronary artery disease. Stromal cells were starved in serum-free media for one day and then stimulated with 50 ng/ml PDGF-BB. The drags were added at the indicated concentrations one hour prior to PDGF stimulation. Tritiated thymidine was added for one day at the time of PDGF stimulation and the cells were harvested and counted by liquid scintillation counting 24 hrs later. Background counts (i.e., starved cells) were approximately 1% of control levels.
Another assay for measuring activity of the inventive compounds involves determining PDGF (platelet derived growth factor) proliferative response using human-derived stromal cells. Human stromal cells are plated (e.g., about 2000 cells per well) in defined media (e.g., 69% McCoy's, 12.5% fetal calf serum, 12.5% horse serum, 1% antibiotics, 1% glutamine, 1% vitamin supplement, 0.8% essential amino acids, 1% sodium pyruvate, 1% sodium bicarbonate, 0.4% non-essential amino acids and 0.36% hydrocortisone). Two to three days later, the stromal cells are starved in serum-free media. Twenty four hours later, the cells are treated with a stimulating agent, such as PDGF-AA, PDGF-BB or basic FGF (fibroblast growth factor) with or without IL-1α or TNF, and tritiated thymidine. Cell proliferation is determined by liquid scintillation counting.
as §1, with “drugs” for “drags”

[2] = test system: TNF release from monocytes in whole blood; test: ex vivo human TNF model, LPS-mediated TNF release in whole blood; type: cell-based; conditions: FIG. 14
Protocol: (§2) This model adds LPS to whole blood (normal human volunteers) to trigger a dose-dependent synthesis and extracellular release of TNF according to Desch et al. (Lymphokine Res. 8:141, 1989). The ex vivo model examines whether LPS-mediated release of TNF from monocytes in whole blood can be block by an inventive compound.
An ex vivo human sepsis model is described in Desch et al., Lymphokine Res. 8:141, 1989 and in Ooi et al., J. Exp. Med. 174:649, 1991. Briefly, whole blood from humans is incubated with LPS (endotoxin). TNF released from cells (mostly from monocytes) is measured. The inventive compounds lower TNF levels as compared with untreated controls in this model.
as §2, with “This example illustrates a comparative experiment comparing CT1595, CT1529 and CT2519 in an ex vivo human TNF model described herein. This assay is a predictive model for treatment and prevention of septic shock and sepsis syndrome. This” for “This”

[3] = test system: CMV promoter activity in transformed (adenovirus) cells; test: CMV promoter assay (gene transcription and translation, cytotoxic activity); type: cell-based
Excerpt: This example illustrates data regarding proliferative activity of various inventive compounds for inducting CMV promoter activity. The CMV promoter assay measures gene transcription and translation activity wherein any active compounds will nave cytotoxic activity to inhibit cellular protein synthesis machinery in transformed (adenovirus) cells.

[4] = test system: polymorphonuclear leukocytes; conditions: in response to a stimulator of chemotaxis; U.S. Pat. No. 4,636,507; cited from earlier work
[5] = U.S. Pat. Nos. 4,515,795 and 4,576,947; cited from earlier work
[6] = test system: ras-transformed NIH/3T3 cells; test: serum-stimulated generation of DAG and PA in ras-transformed NIH/3T3 cells; type: cell-based; conditions: pretreatment of cells
Excerpt: For example, activating ras mutations result in increased generation of DAG on stimulation with mitogens, although the sources of DAG have differed between experimental systems. In nontransformed renal mesangial cells, IL-1β stimulation increased PLA2 and LPAAT activation, resulting in generation of sn-2 unsaturated PA and subsequent hydrolysis to DAG by phosphatidate phosphohydrolase. The ras transformation in NIH/3T3 cells upregulates serum-stimulated generation of DAG and PA. The specific species of DAG that is stimulated by serum is dioleoyl and for PA are dilinoleoyl and dioleoyl. […] The inhibition occurs either through suppressing the generation of PA de novo from lysoPA, or through inhibition of one or both arms of the Lands cycle. […] Therefore, the ras transformation mediates an upregulation of PA through indirect stimulation of PLA2 and/or LPAAT activity.

PAPH = PAPH blockade in a specific activation pathway; type: cell-based, human; conditions: specific activation pathway that does not involve PI
Excerpt: The compounds and pharmaceutical compositions of the invention include inhibitors of subspecies of LPAAT and PAPH enzymes with substrate specificity for intermediates with 1,2-diunsaturated and 1-alkyl, 2-unsaturated subspecies. One representative example of such an inhibitor (although not within the genus of inventive compounds) is PTX. […] It should be emphasized that the compounds of the invention affect that subset of PAPH and LPAAT that relates to substrates with unsaturated fatty acids other than arachidonate in the sn-2 position, not the housekeeping forms of these enzymes that serve the PI pathway.

LPAAT = test: formation of remodeled PA (LPAAT), in vitro; type: cell-based; conditions: high PTX concentrations
Excerpt: Even in the presence of PTX, cells continue to form PA through the action of PLD, and DAG is also formed through the action of phospholipase C on PC and PI. The latter pathway are not inhibited by the inventive compounds or PTX. In PTX-treated cells, DAG derived from remodeled and PLA-generated PA is diminished (e.g., 1,2-sn-dioleoyl DAG, 1-alkyl,2-linoleoyl DAG and 1-alkyl,2-docosahexaneolyl DAG). Therefore, the inventive compounds and PTX inhibit the formation of only a certain species of PA and DAG by selectively inhibiting a specific second messenger pathway that is only activated in cells by noxious stimuli, but is not used to signal normal cellular housekeeping functions.

[7] = test system: ras-transformed NIH/3T3 cells
TNF = conditions: human, in vivo; cited from earlier work

Structure (SMILES) | viability in MLR culture [1] | inhibition of thymocyte proliferation (murine thymocytes) | inhibition of splenocyte proliferation (murine splenocytes) | inhibition of human stromal cell proliferation (human stromal cells; FIG. 7, 50 ng/ml PDGF-BB, in words) | IC50 (human stromal cells; Homo sapiens, read-out: IC50, inhibition of human stromal cell proliferation) [µM] | block of LPS-mediated TNF release [2] | cytotoxicity in CMV promoter assay ([3]; in words) | IC50 ([3]; read-out: IC50 (μM), CMV promoter assay) [µM] | stimulation of chemotaxis in polymorphonuclear leukocytes [4] | cerebral blood flow [5] | generation of phospholipid second messengers (DAG, PA) [6] | PAPH block (PAPH) | formation of remodeled PA (LPAAT) | cytotoxicity associated with inhibition of ras-transformed cells [7] | inhibition of ras-transformed NIH/3T3 cells ([7]; vs parental cells) | TNF levels in normal volunteers (TNF)
CC(CCCCn1c(=O)c2c(ncn2C)n(C)c1=O)N=C=S (centres unmarked) [CT2519, 1-(5-isothiocyanatohexyl)-3,7-dimethylxanthine] | not cytotoxic at 100 μM | most potent drugs | most potent inhibitors of splenocyte proliferation in a dose-response manner | strongly inhibit proliferation | < 10 | could block TNF release in a dose-dependent fashion | most cytotoxic compound tested | 10 |  |  |  |  |  |  |  | 
CC(O)CCCCn1c(=O)c2c(ncn2C)n(C)c1=O (centres unmarked) [M1, 1-(5-hydroxyhexyl)-3,7-dimethylxanthine] |  |  |  |  |  |  |  |  | stimulate chemotaxis | increasing cerebral blood flow |  |  |  |  |  | 
CC(=O)CCCCn1c(=O)c2c(ncn2C)n(C)c1=O [PTX, 1-(5-oxohexyl)-3,7-dimethylxanthine] |  |  |  |  |  |  |  |  | stimulate chemotaxis |  | blocks generation of these phospholipid second messengers | blocks PAPH | blocks formation of remodeled PA | not associated with significant cytotoxicity | inhibits ras-transformed NIH/3T3 cells more than parental cells | TNF levels were higher among PTX recipients
